According to US9650395B2, “Antibacterial compounds and methods for use” (PTC Therapeutics, Inc., priority 2011, dated 2017):
≈ marks a conversion by molar mass, not a printed value. Counter-ions that a name gives are not always drawn. Like-named read-outs stand apart in the source and are kept apart here.

Experiments:
[1] = tested on: control Gram-negative E. coli 25922 strain; experiment: Antibacterial activity, microbroth dilution MIC, E. coli 25922; assay type: cell-based, Escherichia coli; settings: Escherichia coli; E. coli 25922, microbroth dilution; read-out: MIC, 25922
[2] = tested on: Gram-positive Staphylococcus aureus (S. aureus) 29213; experiment: Antibacterial activity, microbroth dilution MIC, S. aureus 29213; assay type: cell-based; settings: Staphylococcus aureus; S. aureus 29213, microbroth dilution; read-out: MIC, 29213
[3] = tested on: super sensitive Gram-negative Escherichia coli (E. coli) BAS849; experiment: Antibacterial activity, microbroth dilution MIC, E. coli BAS849; assay type: cell-based; settings: Escherichia coli, read-out: MIC, BAS849
[4] = E. coli BAS849, microbroth dilution

SMILES | MIC [1] [µg/mL] | MIC [2] [µg/mL] | MIC [3, 4] [µg/mL] | MIC [3] [µg/mL]
CCc1cc(C(=O)O)c(=O)[nH]c1-c1ccc(N2CCCC2)c(OC)c1 [Cpd 66, 5-ethyl-6-[3-methoxy-4-(pyrrolidin-1-yl)phenyl]-2-oxo-1,2-dihydropyridine-3-carboxylic acid] | 12.5 to 150 (≈ 36.5 to 438 µM) | 12.5 to 150 (≈ 36.5 to 438 µM) | 3.5 to 12.5 (≈ 10.2 to 36.5 µM) | 
CCc1c(-c2ccc(N3CCCC3)c(OC)c2)[nH]c(=O)c(C(=O)O)c1O [Cpd 67, 5-ethyl-4-hydroxy-6-[3-methoxy-4-(pyrrolidin-1-yl)phenyl]-2-oxo-1,2-dihydropyridine-3-carboxylic acid] | 12.5 to 150 (≈ 34.9 to 419 µM) | 1 to 3.5 (≈ 2.79 to 9.77 µM) | 3.5 to 12.5 (≈ 9.77 to 34.9 µM) | 
CCc1c(-c2ccc(N3CCCCC3)c(OC)c2)[nH]c(=O)c(C(=O)O)c1O [Cpd 69, 5-ethyl-4-hydroxy-6-[3-methoxy-4-(piperidin-1-yl)phenyl]-2-oxo-1,2-dihydropyridine-3-carboxylic acid] | 12.5 to 150 (≈ 33.6 to 403 µM) | 3.5 to 12.5 (≈ 9.4 to 33.6 µM) | 3.5 to 12.5 (≈ 9.4 to 33.6 µM) | 
CCc1cc(C(=O)O)c(=O)[nH]c1-c1ccc(N2CCCC2)c(C)c1 [Cpd 70, 5-ethyl-6-[3-methyl-4-(pyrrolidin-1-yl)phenyl]-2-oxo-1,2-dihydropyridine-3-carboxylic acid] | 12.5 to 150 (≈ 38.3 to 460 µM) | 12.5 to 150 (≈ 38.3 to 460 µM) | < 1 | 
CCc1c(-c2ccc(N3CCCC3)c(C)c2)[nH]c(=O)c(C(=O)O)c1O [Cpd 71, 5-ethyl-4-hydroxy-6-[3-methyl-4-(pyrrolidin-1-yl)phenyl]-2-oxo-1,2-dihydropyridine-3-carboxylic acid] | 12.5 to 150 (≈ 36.5 to 438 µM) | 3.5 to 12.5 (≈ 10.2 to 36.5 µM) | 1 to 3.5 (≈ 2.92 to 10.2 µM) | 
CCc1cc(C(=O)O)c(=O)[nH]c1-c1ccc(N2CCCCC2)c(C)c1 [Cpd 72, 5-ethyl-6-[3-methyl-4-(piperidin-1-yl)phenyl]-2-oxo-1,2-dihydropyridine-3-carboxylic acid] | 12.5 to 150 (≈ 36.7 to 441 µM) | 12.5 to 150 (≈ 36.7 to 441 µM) | 3.5 to 12.5 (≈ 10.3 to 36.7 µM) | 
CCc1c(-c2ccc(N3CCCCC3)c(C)c2)[nH]c(=O)c(C(=O)O)c1O [Cpd 73, 5-ethyl-4-hydroxy-6-[3-methyl-4-(piperidin-1-yl)phenyl]-2-oxo-1,2-dihydropyridine-3-carboxylic acid] | 12.5 to 150 (≈ 35.1 to 421 µM) | 3.5 to 12.5 (≈ 9.82 to 35.1 µM) | 3.5 to 12.5 (≈ 9.82 to 35.1 µM) | 
CCc1c(-c2ccc(F)cc2)[nH]c(=O)c(C(=O)O)c1O [Cpd 74, 5-ethyl-6-(4-fluorophenyl)-4-hydroxy-2-oxo-1,2-dihydropyridine-3-carboxylic acid] | 12.5 to 150 (≈ 45.1 to 541 µM) | 12.5 to 150 (≈ 45.1 to 541 µM) | 3.5 to 12.5 (≈ 12.6 to 45.1 µM) | 
CCc1cc(C(=O)O)c(=O)[nH]c1-c1ccc(Cl)cc1 [Cpd 76, 6-(4-chlorophenyl)-5-ethyl-2-oxo-1,2-dihydropyridine-3-carboxylic acid] | 12.5 to 150 (≈ 45 to 540 µM) | 12.5 to 150 (≈ 45 to 540 µM) | 12.5 to 150 (≈ 45 to 540 µM) | 
CCc1c(-c2ccc(Cl)cc2)[nH]c(=O)c(C(=O)O)c1O [Cpd 77, 6-(4-chlorophenyl)-5-ethyl-4-hydroxy-2-oxo-1,2-dihydropyridine-3-carboxylic acid] | 12.5 to 150 (≈ 42.6 to 511 µM) | 3.5 to 12.5 (≈ 11.9 to 42.6 µM) | 1 to 3.5 (≈ 3.4 to 11.9 µM) | 
CCc1cc(C(=O)O)c(=O)[nH]c1-c1ccc(Br)cc1 [Cpd 78, 6-(4-bromophenyl)-5-ethyl-2-oxo-1,2-dihydropyridine-3-carboxylic acid] | 12.5 to 150 (≈ 38.8 to 466 µM) | 12.5 to 150 (≈ 38.8 to 466 µM) | 3.5 to 12.5 (≈ 10.9 to 38.8 µM) | 
CCc1c(-c2ccc(Br)cc2)[nH]c(=O)c(C(=O)O)c1O [Cpd 79, 6-(4-bromophenyl)-5-ethyl-4-hydroxy-2-oxo-1,2-dihydropyridine-3-carboxylic acid] | 12.5 to 150 (≈ 37 to 444 µM) | 3.5 to 12.5 (≈ 10.4 to 37 µM) | < 1 | 
CCc1cc(C(=O)O)c(=O)[nH]c1-c1ccc(I)cc1 [Cpd 80, 5-ethyl-6-(4-iodophenyl)-2-oxo-1,2-dihydropyridine-3-carboxylic acid] | 12.5 to 150 (≈ 33.9 to 406 µM) | 12.5 to 150 (≈ 33.9 to 406 µM) | 3.5 to 12.5 (≈ 9.48 to 33.9 µM) | 
CCc1c(-c2ccc(I)cc2)[nH]c(=O)c(C(=O)O)c1O [Cpd 81, 5-ethyl-4-hydroxy-6-(4-iodophenyl)-2-oxo-1,2-dihydropyridine-3-carboxylic acid] | 12.5 to 150 (≈ 32.5 to 389 µM) | 3.5 to 12.5 (≈ 9.09 to 32.5 µM) | 1 to 3.5 (≈ 2.6 to 9.09 µM) | 
CCc1cc(C(=O)O)c(=O)[nH]c1-c1ccc(N2CC3(CCCCC3)CC2=O)cc1 [Cpd 118, 5-ethyl-2-oxo-6-[4-(3-oxo-2-azaspiro[4.5]dec-2-yl)phenyl]-1,2-dihydropyridine-3-carboxylic acid] | 12.5 to 150 (≈ 31.7 to 380 µM) | 12.5 to 150 (≈ 31.7 to 380 µM) | 3.5 to 12.5 (≈ 8.87 to 31.7 µM) | 
CCc1cc(C(=O)O)c(=O)[nH]c1-c1ccc(N2C(=O)C3C=CC2C3)cc1 (stereo not drawn) [Cpd 119, 5-ethyl-2-oxo-6-[4-(3-oxo-2-azabicyclo[2.2.1]hept-5-en-2-yl)phenyl]-1,2-dihydropyridine-3-carboxylic acid] | 12.5 to 150 (≈ 35.7 to 428 µM) | 12.5 to 150 (≈ 35.7 to 428 µM) | 1 to 3.5 (≈ 2.85 to 9.99 µM) | 
CCc1cc(C(=O)O)c(=O)[nH]c1-c1ccc(N2CC(OC3CCCCO3)C2)cc1 (stereo not drawn) [Cpd 120, 5-ethyl-2-oxo-6-{4-[3-(tetrahydro-2H-pyran-2-yloxy)azetidin-1-yl]phenyl}-1,2-dihydropyridine-3-carboxylic acid] | 12.5 to 150 (≈ 31.4 to 376 µM) | 12.5 to 150 (≈ 31.4 to 376 µM) | < 1 | 
CCc1cc(C(=O)O)c(=O)[nH]c1-c1ccc(N2CCC[C@@H](O)C2)cc1 [Cpd 122, 5-ethyl-6-{4-[(3R)-3-hydroxypiperidin-1-yl]phenyl}-2-oxo-1,2-dihydropyridine-3-carboxylic acid] | 3.5 to 12.5 (≈ 10.2 to 36.5 µM) | 12.5 to 150 (≈ 36.5 to 438 µM) | < 1 | 
CCc1c(-c2ccc(N3CCC[C@@H](O)C3)cc2)[nH]c(=O)c(C(=O)O)c1O [Cpd 125, 5-ethyl-4-hydroxy-6-{4-[(3R)-3-hydroxypiperidin-1-yl]phenyl}-2-oxo-1,2-dihydropyridine-3-carboxylic acid] | 3.5 to 12.5 (≈ 9.77 to 34.9 µM) | 12.5 to 150 (≈ 34.9 to 419 µM) | < 1 | 
CCc1cc(C(=O)OC)c(=O)[nH]c1-c1ccc(N2CCC(OCc3ccccc3)C2)cc1 (stereo not drawn) [Cpd 127, methyl 6-{4-[3-(benzyloxy)pyrrolidin-1-yl]phenyl}-5-ethyl-2-oxo-1,2-dihydropyridine-3-carboxylate] | 12.5 to 150 (≈ 28.9 to 347 µM) | 12.5 to 150 (≈ 28.9 to 347 µM) | 12.5 to 150 (≈ 28.9 to 347 µM) | 
CCc1cc(C(=O)O)c(=O)[nH]c1-c1ccc(N2C[C@@H](N)[C@H](O)C2)cc1.Cl [Cpd 133, 6-{4-[(3R,4R)-3-amino-4-hydroxypyrrolidin-1-yl]phenyl}-5-ethyl-2-oxo-1,2-dihydropyridine-3-carboxylic acid hydrochloride] | 12.5 to 150 | 12.5 to 150 | 1 to 3.5 | 
CCc1cc(C(=O)O)c(=O)[nH]c1-c1ccc(N2CC3CC2CN3C(=O)OC(C)(C)C)cc1 (stereo not drawn) [Cpd 137, 6-{4-[5-(tert-butoxycarbonyl)-2,5-diazabicyclo[2.2.1]hept-2-yl]phenyl}-5-ethyl-2-oxo-1,2-dihydropyridine-3-carboxylic acid] | 12.5 to 150 (≈ 28.4 to 341 µM) | 12.5 to 150 (≈ 28.4 to 341 µM) |  | < 1
CCc1cc(C(=O)O)c(=O)[nH]c1-c1ccc(N2CCC[C@H]2CN2CCCC2)cc1.O=C(O)C(F)(F)F [Cpd 143, 5-ethyl-2-oxo-6-{4-[(2S)-2-(pyrrolidin-1-ylmethyl)pyrrolidin-1-yl]phenyl}-1,2-dihydropyridine-3-carboxylic acid trifluoroacetate] | 12.5 to 150 | 12.5 to 150 |  | 3.5 to 12.5
CCc1cc(C(=O)O)c(=O)[nH]c1-c1ccc(N2Cc3ccccc3C2)cc1 [Cpd 162, 6-[4-(1,3-dihydro-2H-isoindol-2-yl)phenyl]-5-ethyl-2-oxo-1,2-dihydropyridine-3-carboxylic acid] | 12.5 to 150 (≈ 34.7 to 416 µM) | 12.5 to 150 (≈ 34.7 to 416 µM) | 3.5 to 12.5 (≈ 9.71 to 34.7 µM) | 
CCc1cc(C(=O)O)c(=O)[nH]c1-c1ccc(N2CC(N)C2)cc1 [Cpd 170, 6-[4-(3-aminoazetidin-1-yl)phenyl]-5-ethyl-2-oxo-1,2-dihydropyridine-3-carboxylic acid] | 12.5 to 150 (≈ 39.9 to 479 µM) | 12.5 to 150 (≈ 39.9 to 479 µM) | 12.5 to 150 (≈ 39.9 to 479 µM) | 
CCc1cc(C(=O)O)c(=O)[nH]c1-c1ccc(N2CC(NC(=O)OCc3ccccc3)C2)cc1 [Cpd 171, 6-[4-(3-{[(benzyloxy)carbonyl]amino}azetidin-1-yl)phenyl]-5-ethyl-2-oxo-1,2-dihydropyridine-3-carboxylic acid] | 12.5 to 150 (≈ 27.9 to 335 µM) | 12.5 to 150 (≈ 27.9 to 335 µM) | 3.5 to 12.5 (≈ 7.82 to 27.9 µM) | 
CCc1cc(C(=O)O)c(=O)[nH]c1-c1ccc(N2CCC(N(CC)CC)C2)cc1.O=C(O)C(F)(F)F (stereo not drawn) [Cpd 172, 6-{4-[3-(diethylamino)pyrrolidin-1-yl]phenyl}-5-ethyl-2-oxo-1,2-dihydropyridine-3-carboxylic acid trifluoroacetate] | 3.5 to 12.5 | 12.5 to 150 |  | < 1
CCc1cc(C(=O)O)c(=O)[nH]c1-c1ccc(N2C[C@@H]3[C@H](C2)[C@H]3N(Cc2ccccc2)Cc2ccccc2)cc1 [Cpd 176, 6-{4-[(1R,5S,6s)-6-(dibenzylamino)-3-azabicyclo[3.1.0]hex-3-yl]phenyl}-5-ethyl-2-oxo-1,2-dihydropyridine-3-carboxylic acid hydrochloride] | 12.5 to 150 | 12.5 to 150 | 12.5 to 150 | 
